According to patent US8410289B2, “Spirocyclic 3'-alkoxytetramic acids and-tetronic acids” (Bayer Cropscience AG, priority 2004, dated 2013):

Columns and labels:
Summer wheat = experiment: Herbicidal post-emergence action with/without safener (Example H, container trials with cereals, greenhouse or outdoors); format: in vivo
Experimental: (§1) Herbicidal Post-Emergence Action
(§2) Seeds of monocotyledonous and dicotyledonous weed and crop plants are placed into sandy loam in wood fibre pots or in plastic pots, covered with soil and cultivated in a greenhouse, during the vegetation period also outdoors outside of the greenhouse, under good growth conditions. 2-3 weeks after sowing, the test plants are treated at the one- to three-leaf stage. The test compounds, formulated as wettable powders (WP) or emulsifiable concentrates (EC) are, in various dosages with a water application rate of 300 l/ha (converted), with wetting agent (0.2 to 0.3%) added, sprayed onto the plants and the surface of the soil. 3-4 weeks after the treatment of the test plants, the effect of the preparations is rated visually in comparison to untreated controls (herbicidal effect in per cent (%): 100%=the plants have died, 0% effect=like control plants).
(§3) If it is additionally to be tested as to whether safeners can improve the crop plant compatibility of test substances in the case of crop plants, the following options are used for applying the safener: • seeds of the crop plants are, before sowing, dressed with the safener substance (the amount of safener stated in per cent, based on the weight of the seed) • before the application of the test substances, the crop plants are sprayed with the safener at a certain application rate per hectare (usually 1 day before the application of the test substances) • the safener is applied together with the test substance as a tank mix (the amount of safener is stated in g/ha or as a ratio, based on the herbicide).
(§4) By comparing the effect of the test substances on crop plants without or with safener treatment, it is possible to assess the effect of the safener substance.

barley = experiment: as above; format: in vivo
Experimental: as §1, §2, §3, §4

maize = experiment: Herbicidal post-emergence action with/without safener (Example H, container trials with maize in a greenhouse); format: in vivo; settings: 12.5 g of a.i./ha, without safener
Experimental: as §1
as §2, with “plants). […]” for “plants).”

[1] = log P determination by HPLC on reverse-phase column (C 18), EEC-Directive 79/831 Annex V.A8; format: physicochemical
Experimental: • The log P values given in the tables and preparation examples above are determined in accordance with EEC-Directive 79/831 Annex V.A8 by HPLC (High Performance Liquid Chromatography) on a reverse-phase column (C 18). Temperature: 43° C.
The determination is carried out in the acidic range at pH 2.3 using the mobile phases 0.1% aqueous phosphoric acid and acetonitrile; linear gradient from 10% acetonitrile to 95% acetonitrile.
The LC-MS determination in the acidic range is carried out at pH 2.7 using the mobile phases 0.1% aqueous formic acid and acetonitrile (contains 0.1% formic acid); linear gradient from […] acetonitrile to 95% acetonitrile.
The LC-MS determination in the neutral range is carried out at pH 7.8 using the mobile phases 0.001 molar aqueous ammonium bicarbonate solution and acetonitrile; linear gradient from 10% acetonitrile to 95% acetonitrile.
The calibration is carried out using unbranched alkan-2-ones (with 3 to 16 carbon atoms) with known log P values (determination of the log P values by retention times using linear interpolation between two successive alkanones).

[2] = greenhouse, 25 g of a.i./ha, without safener
[3] = greenhouse, 50 g of a.i./ha, without safener
[4] = outdoors, 100 g of a.i./ha, without safener (tank mix trial), listed as Ex. I-1-a-1
[5] = greenhouse, 6.25 g of a.i./ha, without safener
[6] = greenhouse, 12.5 g of a.i./ha, without safener
[7] = greenhouse, 3.125 g of a.i./ha, without safener
[8] = greenhouse, 100 g of a.i./ha, without safener
[9] = outdoors, 12.5 g of a.i./ha, without safener (trial with mefenpyr 1 day prior)
[10] = outdoors, 25 g of a.i./ha, without safener (tank mix trial)
[11] = outdoors, 25 g of a.i./ha, without safener (trial with mefenpyr 1 day prior)
[12] = outdoors, 50 g of a.i./ha, without safener (tank mix trial)
[13] = outdoors, 50 g of a.i./ha, without safener (trial with mefenpyr 1 day prior)
[14] = outdoors, 100 g of a.i./ha, without safener (tank mix trial), listed as Ex. I-1-a-43
[15] = outdoors, 100 g of a.i./ha, without safener (trial with mefenpyr 1 day prior)
[16] = tank mix post-emergence, 20 g of a.i./ha, without safener
[17] = tank mix post-emergence, 80 g of a.i./ha, without safener
[18] = compounds of formula (I-2-a); generally isomer mixtures; those marked 1) were separated into cis and trans diastereomers

Q: Which “Summer wheat observed (%)” value (Summer wheat; [2]) does the source give for CCc1cc(C)cc(Br)c1C1=C(OC(=O)C(C)C)C2(CCCC(OC)C2)NC1=O (single isomer, unassigned) [Ex. I-1-b-11] here?
A: 10%

Q: And the “Summer wheat observed (%)” value (Summer wheat; [3])?
A: 70%

Q: What does the source list for CCCCOC1CCCC2(C1)NC(=O)C(c1c(C)cc(C)cc1C)=C2O (stereo not drawn) [Example I-1-a-1]?
A: Summer barley observed (%) (barley; [4]): 70%; Summer wheat observed (%) (Summer wheat; [4]): 35%

Q: For CCOC1CCCC2(C1)NC(=O)C(c1c(Br)cc(C)cc1CC)=C2O (single isomer, unassigned) [Example I-1-a-18], which “Summer barley observed (%)” value (barley; [5]) is on record?
A: 50%

Q: What about the “Summer barley observed (%)” value (barley; [6]) of the same compound?
A: 93%

Q: And the “Summer wheat observed (%)” value (Summer wheat; [7])?
A: 30%

Q: What about the “Summer wheat observed (%)” value (Summer wheat; [5]) of the same compound?
A: 40%

Q: What about the “Summer wheat observed (%)” value (Summer wheat; [6]) of the same compound?
A: 95%

Q: For CCOC(=O)OC1=C(c2c(Br)cc(C)cc2CC)C(=O)NC12CCCC(OCC)C2 (single isomer, unassigned) [Ex. I-1-c-9], which “Summer wheat observed (%)” value (Summer wheat; [3]) is on record?
A: 30%

Q: What about the “Summer wheat observed (%)” value (Summer wheat; [8]) of the same compound?
A: 60%

Q: What does the source list for CCCCOC1CCCC2(C1)NC(=O)C(c1c(C)cc(C)cc1C)=C2O (single isomer, unassigned) [Example I-1-a-43]?
A: Summer barley observed (%) (barley; [9]): 10%; Summer barley observed (%) (barley; [10]): 40%; Summer barley observed (%) (barley; [11]): 70%; Summer barley observed (%) (barley; [12]): 50%; Summer barley observed (%) (barley; [13]): 20%; Summer barley observed (%) (barley; [14]): 60%; Summer barley observed (%) (barley; [15]): 30%; Summer barley (Scarlett) observed (%) (barley; [16]): 30%; Winter barley observed (%) (barley; [16]): 20%; Summer barley (Baronesse) observed (%) (barley; [17]): 30%; Winter barley observed (%) (barley; [17]): 30%; Summer wheat observed (%) (Summer wheat; [9]): 30%; Summer wheat observed (%) (Summer wheat; [10]): 40%; Summer wheat observed (%) (Summer wheat; [11]): 60%; Summer wheat observed (%) (Summer wheat; [12]): 50%; Summer wheat observed (%) (Summer wheat; [13]): 15%; Summer wheat observed (%) (Summer wheat; [14]): 60%; Summer wheat observed (%) (Summer wheat; [15]): 30%

Q: What does the source list for CCOC(=O)OC1=C(c2c(Br)cc(C)cc2CC)C(=O)NC12CCCC(OC)C2 (single isomer, unassigned) [Ex. I-1-c-10]?
A: Summer wheat observed (%) (Summer wheat; [6]): 60%; Cecilia Mais observed (%) (maize): 40%

Q: For CCCCOC1CCCC2(C1)NC(=O)C(c1c(Br)cc(C)cc1CC)=C2OC(=O)COC (single isomer, unassigned) [Ex. I-1-b-14], which “Summer wheat observed (%)” value (Summer wheat; [7]) is on record?
A: 20%

Q: And the “Summer wheat observed (%)” value (Summer wheat; [5])?
A: 30%

Q: For CCc1cc(C)cc(Br)c1C1=C(O)C2(CCCC(OC)C2)NC1=O (single isomer, unassigned) [Example I-1-a-14], which “Summer barley observed (%)” value (barley; [6]) is on record?
A: 30%

Q: And the “Summer barley observed (%)” value (barley; [2])?
A: 93%

Q: And the “Summer wheat observed (%)” value (Summer wheat; [6])?
A: 30%

Q: And the “Summer wheat observed (%)” value (Summer wheat; [2])?
A: 93%

Q: Which “Summer barley observed (%)” value (barley; [2]) does the source give for CCCCOC1CCCC2(C1)NC(=O)C(c1c(Cl)cc(Br)cc1CC)=C2OC(=O)C(C)C (single isomer, unassigned) [Ex. I-1-b-9] here?
A: 30%

Q: What about the “Summer barley observed (%)” value (barley; [3]) of the same compound?
A: 90%

Q: And the “Summer wheat observed (%)” value (Summer wheat; [2])?
A: 20%

Q: And the “Summer wheat observed (%)” value (Summer wheat; [3])?
A: 90%

Q: With COC1CCCC2(C1)NC(=O)C(c1c(C)cc(C)cc1C)=C2O (mixture of isomers) [Example I-1-a-2] as the compound, how does the “Summer wheat observed (%)” value (Summer wheat; container trial in a greenhouse, application rate 100 g of a.i./ha, without safener) read?
A: 60%

Q: Which logP [1, 18] does the source give for COC1CCCC2(C1)OC(=O)C(c1cc(-c3cccc(Cl)c3)ccc1C)=C2O (stereo not drawn) [Example I-2-a-33] here?
A: 3.16

Q: What does the source list for CCCCOC1CCCC2(C1)NC(=O)C(c1c(Br)cc(C)cc1CC)=C2O (single isomer, unassigned) [Example I-1-a-17]?
A: Summer wheat observed (%) (Summer wheat; [5]): 10%; Summer wheat observed (%) (Summer wheat; [6]): 60%; Summer wheat observed (%) (Summer wheat; [2]): 70%

Q: For CCCOC1CCCC2(C1)NC(=O)C(c1c(Br)cc(C)cc1CC)=C2O (single isomer, unassigned) [Example I-1-a-12], which “Summer barley observed (%)” value (barley; [7]) is on record?
A: 30%

Q: What about the “Summer barley observed (%)” value (barley; [5]) of the same compound?
A: 97%

Q: And the “Summer barley observed (%)” value (barley; [6])?
A: 99%

Q: And the “Summer wheat observed (%)” value (Summer wheat; [5])?
A: 10%

Q: And the “Summer wheat observed (%)” value (Summer wheat; [6])?
A: 97%

Q: Which results are given for CCCOC1CCCC2(C1)NC(=O)C(c1c(C)cc(C)cc1C)=C2O (single isomer, unassigned) [Example I-1-a-19]?
A: Summer barley observed (%) (barley; [3]): 25%; Summer barley observed (%) (barley; [8]): 30%

Q: Which logP [1, 18] does the source give for COC1CCCC2(C1)OC(=O)C(c1cc(Br)ccc1C)=C2O (stereo not drawn) [I-2-a-23] here?
A: 2.30

Q: Which logP [1, 18] does the source give for COC1CCCC2(C1)OC(=O)C(c1cc(Cl)c(C)cc1Cl)=C2O (mixture of isomers) [I-2-a-48] here?
A: 2.47

Q: For COc1cc(C)cc(C)c1C1=C(O)C2(CCCC(OC)C2)OC1=O (single isomer, unassigned) [Example I-2-a-16], which logP [1, 18] is on record?
A: 2.10^1)

Q: What does the source list for CCCCOC1CCCC2(C1)NC(=O)C(c1c(Cl)cc(Br)cc1CC)=C2OC(=O)COC (single isomer, unassigned) [Ex. I-1-b-8]?
A: Summer barley observed (%) (barley; [2]): 30%; Summer barley observed (%) (barley; [3]): 70%; Summer wheat observed (%) (Summer wheat; [2]): 30%; Summer wheat observed (%) (Summer wheat; [3]): 50%

Q: For CCc1cc(Cl)c(C2=C(O)C3(CCCC(OC)C3)OC2=O)c(Br)c1 (stereo not drawn) [Example I-2-a-29], which logP [1, 18] is on record?
A: 2.62

Q: For CCCCOC1CCCC2(C1)OC(=O)C(c1c(CC)cc(Br)cc1CC)=C2O (stereo not drawn) [I-2-a-55], which logP [1, 18] is on record?
A: 4.24

Q: For COC1CCCC2(C1)OC(=O)C(c1ccccc1C)=C2O (stereo not drawn) [Example I-2-a-7], which logP [1, 18] is on record?
A: 1.81

Q: Which logP [1, 18] does the source give for COC1CCCC2(C1)OC(=O)C(c1cc(F)c(C)cc1Br)=C2O (mixture of isomers) [I-2-a-44] here?
A: 2.25

Q: With COC1CCCC2(C1)OC(=O)C(c1c(C)cc(C)c(-c3ccc(Cl)cc3)c1C)=C2O (mixture of isomers) [I-2-a-30] as the compound, how does the logP [1, 18] read?
A: 3.60

Q: With COC1CCCC2(C1)OC(=O)C(c1c(Cl)cc(C)cc1Br)=C2O (stereo not drawn) [Example I-2-a-5] as the compound, how does the logP [1, 18] read?
A: 2.40

Q: For COC1CCCC2(C1)OC(=O)C(c1c(C)cc(C)cc1C)=C2OC(=O)C(C)C (stereo not drawn) [Example I-2-b-4], which logP ([1]; compounds of formula (I-2-b), isomer (cis, trans or α + β about 1:1), two values for α + β mixtures) is on record?
A: 4.15

Q: For CCc1cc(Br)cc(CC)c1C1=C(O)C2(CCCC(OC)C2)OC1=O (mixture of isomers) [Example I-2-a-3], which logP [1, 18] is on record?
A: 2.98

Q: For COC1CCCC2(C1)OC(=O)C(c1ccc(C)cc1Cl)=C2O (stereo not drawn) [Example I-2-a-22], which logP [1, 18] is on record?
A: 2.13
